Test results reported in PubChem BioAssay AID2060491 (Molecular Pharmacology Branch, DTP, NCI, 2025).

System: 857933-349-R-J2-PDC complex spheroids, viability
Assay: Anticancer human tumor 857933-349-R-J2-PDC patient-derived colon adenocarcinoma cell line growth inhibition [GQUAD]
Conditions: for IC50: curve of first compound; for viability, T/C: stronger effect = lower value; active = viability on the fitted dose curve at most 10% of control; inactive = the rest
Text: DNA G-quadruplex Stabilizer Agents in Combinations in Complex Spheroids
A high-throughput screen of multi-cell type tumor spheroids was designed to identify active combinations of DNA G-quadruplex stabilizer agents and targeted small molecules. Complex spheroids include a stromal component modeled by human endothelial cells (HUVEC) and fibroblasts modeled by human mesenchymal stem cells (MSCs). The concentration ranges selected for each drug and investigational agent were based upon clinically achievable concentrations if the clinical Cmax of the agent was known.
Compounds. The drugs and investigational agents: pidnarulex (CX-5461; NSC782164), APTO-253 (NSC789042), BRACO-19 (NSC847499), peposertib (NSC802822), ceralasertib (NSC780249), elimusertib (NSC800525), camonsertib (NSC841442), AZD-1390 (NSC803789), olaparib (NSC753686), talazoparib (NSC767125), ART-558 (NSC835418), sotorasib (NSC818433), MRTX-1133 (NSC836407), SN-38 (NSC673596), topotecan (NSC609699), etoposide (NSC141540), doxorubicin (NSC123127), gemcitabine (NSC613327), 5-fluorouracil (NSC19893), paclitaxel (NSC125973), vemurafenib (NSC761431), panobinostat (NSC761190), R-306465 (JNJ-16241199; NSC773264), adavosertib (NSC754352), TP-3654 (NSC805149), carboplatin (NSC241240), KSQ-4279 (NSC840948), and staurosporine (NSC755774) were obtained from the National Cancer Institute (NCI) Developmental Therapeutics Program Chemical Repository (34). The FDA-approved anticancer drug set is available from the NCI Developmental Therapeutics Program. […] The stock solutions were prepared in dimethyl sulfoxide (DMSO, Sigma-Aldrich, St. Louis, MO, cat. D2650) at 800-fold the tested concentration and stored at -70 degrees C prior to their use. All drugs and investigational agents were tested over a range starting from a high concentration at or near the clinical Cmax and decreasing in half-log increments. If the clinical Cmax for an agent had not been determined, the highest concentration tested was 10 microM.
2.3 Cell Culture. All cells were maintained in an incubator at 37 degrees C and 5% CO2 with 95% humidity. The PDC lines were cultured according to standard operating procedures established by the NCI PDMR. All PDCs were thawed and cultured in Matrigel-coated flasks prepared with a working solution of 1X Ham's F-12 nutrient mix, without supplementation (Invitrogen, cat. 11765054), 100 U/mL penicillin-streptomycin (Invitrogen, cat. 15140122), and 2.5% Matrigel (Corning Inc., cat. 354248) for the first three passages. The 857933-349-R-J2-PDC line was cultured in 6C/Colon 1B media, which includes advanced DMEM/F-12 (Thermo Fisher Scientific, cat. 12634028), 10 mM HEPES (Thermo Fisher Scientific, cat. 15630080), 1X GlutaMAX supplement (Thermo Fisher Scientific, cat. 35050061), 0.1 mg/mL primocin (InvivoGen, cat. ant-pm-2), 10% defined fetal bovine serum, heat inactivated (HyClone Laboratories Inc., cat. SH30070.03HI), 50% L-WRN conditioned media (ATCC, cat. CRL-3276), 1.25 mM N-Acetyl-L-cysteine (Sigma-Aldrich, cat. A9165), 10 mM nicotinamide (Sigma-Aldrich, cat. N0636), 1X B-27 supplement (Thermo Fisher Scientific, cat. 17504044), 1X N-2 supplement (Thermo Fisher Scientific, cat. 17502048), 10 microM Y-27632 dihydrochloride (Tocris Bioscience, cat. 1254), and 50 ng/mL human EGF recombinant protein (Thermo Fisher Scientific, cat. PHG0311). The 485176-168-R4-J1-PDC line was cultured in Panc media, which includes all 6C/Colon 1B media components plus 100 ng/mL human FGF-10 (Thermo Fisher Scientific, cat. 100-26), 500 nM SB-431542 (Selleckchem, cat. S1067), and gastrin (Tocris, cat. 3006).
[…]

[1] = second compound 0.0316 µM, first compound 0.0316 µM
[2] = second compound 0.0316 µM, first compound 0.1 µM
[3] = second compound 0.0316 µM, first compound 0.316 µM
[4] = second compound 0.0316 µM, first compound 1 µM
[5] = second compound 0.0316 µM, first compound 3.16 µM
[6] = second compound 0.0316 µM, first compound 10 µM
[7] = second compound 0.1 µM, first compound 0.0316 µM
[8] = second compound 0.1 µM, first compound 0.1 µM
[9] = second compound 0.1 µM, first compound 0.316 µM
[10] = second compound 0.1 µM, first compound 1 µM
[11] = second compound 0.1 µM, first compound 3.16 µM
[12] = second compound 0.1 µM, first compound 10 µM
[13] = second compound 0.316 µM, first compound 0.0316 µM
[14] = second compound 0.316 µM, first compound 0.1 µM
[15] = second compound 0.316 µM, first compound 0.316 µM
[16] = second compound 0.316 µM, first compound 1 µM
[17] = second compound 0.316 µM, first compound 3.16 µM
[18] = second compound 0.316 µM, first compound 10 µM
[19] = second compound 1 µM, first compound 0.0316 µM
[20] = second compound 1 µM, first compound 0.1 µM
[21] = second compound 1 µM, first compound 0.316 µM
[22] = second compound 1 µM, first compound 1 µM
[23] = second compound 1 µM, first compound 3.16 µM
[24] = second compound 1 µM, first compound 10 µM
[25] = second compound 3.16 µM, first compound 0.0316 µM
[26] = second compound 3.16 µM, first compound 0.1 µM
[27] = second compound 3.16 µM, first compound 0.316 µM
[28] = second compound 3.16 µM, first compound 1 µM
[29] = second compound 3.16 µM, first compound 3.16 µM
[30] = second compound 3.16 µM, first compound 10 µM
[31] = second compound 10 µM, first compound 0.0316 µM
[32] = second compound 10 µM, first compound 0.1 µM
[33] = second compound 10 µM, first compound 0.316 µM
[34] = second compound 10 µM, first compound 1 µM
[35] = second compound 10 µM, first compound 3.16 µM
[36] = second compound 10 µM, first compound 10 µM
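Note: spheroids exposed to compounds for one week before readout.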
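Throughout, for viability, T/C: percent viability relative to vehicle DMSO wells taken as 100%.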

CC(C)n1c(=O)n(C)c2cnc3cc(F)c(-c4ccc(OCCCN5CCCCC5)nc4)cc3c21 + CN(C)c1ccc(Nc2c3ccc(NC(=O)CCN4CCCC4)cc3nc3cc(NC(=O)CCN4CCCC4)ccc23)cc1
> 10 µM: IC50 (second compound 0.0316 µM) | IC50 (second compound 0.1 µM) | IC50 (second compound 0.316 µM) | IC50 (second compound 1 µM) | IC50 (second compound 3.16 µM) | IC50 (second compound 10 µM)
inactive: viability, T/C [1] 108% | viability, T/C [2] 96.8% | viability, T/C [3] 108% | viability, T/C [4] 104% | viability, T/C [5] 105% | viability, T/C [6] 102% | viability, T/C [7] 103% | viability, T/C [8] 101% | viability, T/C [9] 103% | viability, T/C [10] 105% | viability, T/C [11] 104% | viability, T/C [12] 102% | viability, T/C [13] 103% | viability, T/C [14] 103% | viability, T/C [15] 104% | viability, T/C [16] 99.1% | viability, T/C [17] 115% | viability, T/C [18] 98.3% | viability, T/C [19] 101% | viability, T/C [20] 92.3% | viability, T/C [21] 103% | viability, T/C [22] 95% | viability, T/C [23] 103% | viability, T/C [24] 94% | viability, T/C [25] 90.7% | viability, T/C [26] 83.5% | viability, T/C [27] 93.1% | viability, T/C [28] 85.5% | viability, T/C [29] 98.1% | viability, T/C [30] 70.3% | viability, T/C [31] 72.8% | viability, T/C [32] 74.7% | viability, T/C [33] 76% | viability, T/C [34] 74.4% | viability, T/C [35] 74.9% | viability, T/C [36] 63.7%

CC1COCCN1c1cc(-c2ccnn2C)c2ccnc(-c3ccn[nH]3)c2n1 (centres undefined) + CN(C)c1ccc(Nc2c3ccc(NC(=O)CCN4CCCC4)cc3nc3cc(NC(=O)CCN4CCCC4)ccc23)cc1
> 10 µM: IC50 (second compound 0.0316 µM) | IC50 (second compound 0.1 µM) | IC50 (second compound 0.316 µM) | IC50 (second compound 1 µM) | IC50 (second compound 3.16 µM)
2.95 µM: IC50 (second compound 10 µM)
inactive: viability, T/C [1] 98.3% | viability, T/C [2] 80.7% | viability, T/C [3] 78% | viability, T/C [4] 60.8% | viability, T/C [5] 56.2% | viability, T/C [6] 62.5% | viability, T/C [7] 96.1% | viability, T/C [8] 82.5% | viability, T/C [9] 73.5% | viability, T/C [10] 58.3% | viability, T/C [11] 54.3% | viability, T/C [12] 69.7% | viability, T/C [13] 90.8% | viability, T/C [14] 80.8% | viability, T/C [15] 74.7% | viability, T/C [16] 59.4% | viability, T/C [17] 58.6% | viability, T/C [18] 63.1% | viability, T/C [19] 93.5% | viability, T/C [20] 73.4% | viability, T/C [21] 73.8% | viability, T/C [22] 55.9% | viability, T/C [23] 58.4% | viability, T/C [24] 54.3% | viability, T/C [25] 85.9% | viability, T/C [26] 71.8% | viability, T/C [27] 66.1% | viability, T/C [28] 53.1% | viability, T/C [29] 58.9% | viability, T/C [30] 52.4% | viability, T/C [31] 75.8% | viability, T/C [32] 70.8% | viability, T/C [33] 61.9% | viability, T/C [34] 55.2% | viability, T/C [35] 49.6% | viability, T/C [36] 44.6%
